Laboratory results as given in patent US20240218022A1, “ANTI-VISTA MACROCYCLIC PEPTIDES AND COMPOSITIONS” (BRISTOL-MYERS SQUIBB COMPANY, priority 2022, published 2024).
Starred links: 1 amine or outer side, 2 acyl side, 3 side chain; linkers in the order of their positions; H or OH if unused. Positions of bridges follow the written chain, without caps; N, C: chain ends. Non-standard residues stand in square brackets, D forms with d. Residues, ends and D or L forms follow the SMILES beside them. Phe(4-COOH) = N[C@@H](Cc1ccc(C(=O)O)cc1)C(=O)O; βAsp = O=C(O)[C@H](CC(=O)[*:2])N[*:1]; Aad = N[C@@H](CCCC(=O)O)C(=O)O; Cha = N[C@@H](CC1CCCCC1)C(=O)O; NMeL = CN[C@@H](CC(C)C)C(=O)O; Ahp(2) = CCCCC[C@H](N)C(=O)O; NMeNle = CCCC[C@H](NC)C(=O)O; Tle = CC(C)(C)[C@H](N)C(=O)O; NMeS = CN[C@@H](CO)C(=O)O; NHexGly = CCCCCCNCC(=O)O; Orn = NCCC[C@H](N)C(=O)O; Aun = NCCCCCCCCCCC(=O)O; Abu = CC[C@H](N)C(=O)O; AEEA = NCCOCCOCC(=O)O

Biological target: T1, mouse VISTA (mVISTA) (Mus musculus, UniProt Q9D659)
T1 construct: expressed in transfected cells; host or cells: Human embryonic kidney 293T cells
T1 sequence (Q9D659 33-308): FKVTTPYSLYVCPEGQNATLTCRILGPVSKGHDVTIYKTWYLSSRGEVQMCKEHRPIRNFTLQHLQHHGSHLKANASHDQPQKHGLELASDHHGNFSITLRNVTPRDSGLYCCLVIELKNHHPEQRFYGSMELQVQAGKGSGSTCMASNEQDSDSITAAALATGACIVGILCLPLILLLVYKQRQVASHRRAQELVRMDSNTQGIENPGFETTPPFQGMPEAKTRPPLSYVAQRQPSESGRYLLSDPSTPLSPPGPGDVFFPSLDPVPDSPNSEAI
Assay: Cell-Based Binding High-Content Assay For mVISTA (HC CBA mVISTA)
Conditions: cell-based binding high-content assay, mVISTA; read-out: HC CBA miPr ISTA IC50
Method in brief: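 Read-out: Alexa 647–streptavidin signal imaged on fixed, Hoechst-stained mVISTA-293T cells, with IC50 taken from a four-parameter logistic curve. Compounds competed with 2 nM biotinylated peptide for 30 min at room temperature, tested under both no-wash and wash (1 h compound, media exchange, 1 h) formats.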

Row | SMILES | IC50 [nM]
1 | CCCCCCN1CC(=O)N[C@@H](Cc2ccc(O)cc2)C(=O)N[C@@H](CC(C)C)C(=O)N[C@@H](CC(N)=O)C(=O)N[C@@H](CCCN)C(=O)N(C)[C@@H](CCCC)C(=O)N[C@@H](CCCCC)C(=O)N2CCC[C@H]2C(=O)N[C@@H](C(C)(C)C)C(=O)N[C@@H](CO)C(=O)N[C@H](C(=O)N[C@@H](CC(=O)NCCOCCOCC(=O)N[C@@H](CC(=O)O)C(=O)NCCOCCOCC(=O)NCCCCCCCCCCC(=O)O)C(=O)O)CSCC(=O)N[C@@H](Cc2ccc(C(=O)O)cc2)C(=O)N[C@@H](Cc2ccc(O)cc2)C(=O)N[C@@H](CC(=O)O)C1=O [compound 2047] ({CH2CO}-[Phe(4-COOH)]YD[NHexGly]YLN[Orn][NMeNle][Ahp(2)]P[Tle]SC[βAsp][AEEA]D[AEEA][Aun]-OH; thioether N-14) | 48.8
2 | CCCCCCN1CC(=O)N[C@@H](Cc2ccc(O)cc2)C(=O)N[C@@H](CC(C)C)C(=O)N[C@@H](CC(N)=O)C(=O)N[C@@H](CCCNC(=N)N)C(=O)N(C)[C@@H](CO)C(=O)N[C@@H](CCCCC)C(=O)N2CCC[C@H]2C(=O)N[C@@H](C(C)(C)C)C(=O)N[C@@H](CC(=O)O)C(=O)N[C@H](C(=O)N[C@@H](CC(=O)NCCOCCOCC(=O)N[C@@H](CC(=O)O)C(=O)NCCOCCOCC(=O)NCCCCCCCCCCC(=O)O)C(=O)O)CSCC(=O)N[C@@H](Cc2ccc(C(=O)O)cc2)C(=O)N[C@@H](Cc2ccc(O)cc2)C(=O)N[C@@H](CC(=O)O)C1=O [compound 2048] ({CH2CO}-[Phe(4-COOH)]YD[NHexGly]YLNR[NMeS][Ahp(2)]P[Tle]DC[βAsp][AEEA]D[AEEA][Aun]-OH; thioether N-14) | 35
3 | CCCCCCN1CC(=O)N[C@@H](Cc2ccc(O)cc2)C(=O)N[C@@H](CC(C)C)C(=O)N[C@@H](CC(N)=O)C(=O)N[C@@H](CCCNC(=N)N)C(=O)N(C)[C@@H](CC(C)C)C(=O)N[C@@H](CCCCC)C(=O)N2CCC[C@H]2C(=O)N[C@@H](C(C)(C)C)C(=O)N[C@@H](CO)C(=O)N[C@H](C(=O)N[C@@H](CC(=O)NCCOCCOCC(=O)N[C@@H](CC(=O)O)C(=O)NCCOCCOCC(=O)NCCCCCCCCCCC(=O)O)C(=O)O)CSCC(=O)N[C@@H](Cc2ccc(C(=O)O)cc2)C(=O)N[C@@H](Cc2ccc(O)cc2)C(=O)N[C@@H](CC(=O)O)C1=O [compound 2052] ({CH2CO}-[Phe(4-COOH)]YD[NHexGly]YLNR[NMeL][Ahp(2)]P[Tle]SC[βAsp][AEEA]D[AEEA][Aun]-OH; thioether N-14) | 31.7
4 | CCCCCCN1CC(=O)N[C@@H](Cc2ccc(O)cc2)C(=O)N[C@@H](CC2CCCCC2)C(=O)N[C@@H](CC(N)=O)C(=O)N[C@@H](CCCNC(=N)N)C(=O)N(C)[C@@H](CCCC)C(=O)N[C@@H](CCCCC)C(=O)N2CCC[C@H]2C(=O)N[C@@H](C(C)(C)C)C(=O)N[C@@H](CO)C(=O)N[C@H](C(=O)N[C@@H](CC(=O)NCCOCCOCC(=O)N[C@@H](CC(=O)O)C(=O)NCCOCCOCC(=O)NCCCCCCCCCCC(=O)O)C(=O)O)CSCC(=O)N[C@@H](Cc2ccccc2)C(=O)N[C@@H](Cc2ccc(O)cc2)C(=O)N[C@@H](CC(=O)O)C1=O [compound 2053] ({CH2CO}-FYD[NHexGly]Y[Cha]NR[NMeNle][Ahp(2)]P[Tle]SC[βAsp][AEEA]D[AEEA][Aun]-OH; thioether N-14) | 39.4
5 | CCCCCCN1CC(=O)N[C@@H](Cc2ccc(O)cc2)C(=O)N[C@@H](CC2CCCCC2)C(=O)N[C@@H](CC(N)=O)C(=O)N[C@@H](CCCN)C(=O)N(C)[C@@H](CCCC)C(=O)N[C@@H](CCCCC)C(=O)N2CCC[C@H]2C(=O)N[C@@H](C(C)(C)C)C(=O)N[C@@H](CO)C(=O)N[C@H](C(=O)N[C@@H](CC(=O)NCCOCCOCC(=O)N[C@@H](CC(=O)O)C(=O)NCCOCCOCC(=O)NCCCCCCCCCCC(=O)O)C(=O)O)CSCC(=O)N[C@@H](Cc2ccccc2)C(=O)N[C@@H](Cc2ccc(O)cc2)C(=O)N[C@@H](CC(=O)O)C1=O [compound 2055] ({CH2CO}-FYD[NHexGly]Y[Cha]N[Orn][NMeNle][Ahp(2)]P[Tle]SC[βAsp][AEEA]D[AEEA][Aun]-OH; thioether N-14) | 32.7
6 | CCCCCCN1CC(=O)N[C@@H](Cc2ccc(O)cc2)C(=O)N[C@@H](C)C(=O)N[C@@H](CC(N)=O)C(=O)N[C@@H](CCCNC(=N)N)C(=O)N(C)[C@@H](CCCC)C(=O)N[C@@H](CCCCC)C(=O)N2CCC[C@H]2C(=O)N[C@@H](C(C)(C)C)C(=O)N[C@@H](CO)C(=O)N[C@H](C(=O)N[C@@H](CC(=O)NCCOCCOCC(=O)N[C@@H](CC(=O)O)C(=O)NCCOCCOCC(=O)NCCCCCCCCCCC(=O)O)C(=O)O)CSCC(=O)N[C@@H](Cc2ccccc2)C(=O)N[C@@H](Cc2ccc(O)cc2)C(=O)N[C@@H](CC(=O)O)C1=O [compound 2058] ({CH2CO}-FYD[NHexGly]YANR[NMeNle][Ahp(2)]P[Tle]SC[βAsp][AEEA]D[AEEA][Aun]-OH; thioether N-14) | 27.6
7 | CCCCCCN1CC(=O)N[C@@H](Cc2ccc(O)cc2)C(=O)N[C@@H](CC)C(=O)N[C@@H](CC(N)=O)C(=O)N[C@@H](CCCNC(=N)N)C(=O)N(C)[C@@H](CCCC)C(=O)N[C@@H](CCCCC)C(=O)N2CCC[C@H]2C(=O)N[C@@H](C(C)(C)C)C(=O)N[C@@H](CO)C(=O)N[C@H](C(=O)N[C@@H](CC(=O)NCCOCCOCC(=O)N[C@@H](CC(=O)O)C(=O)NCCOCCOCC(=O)NCCCCCCCCCCC(=O)O)C(=O)O)CSCC(=O)N[C@@H](Cc2ccccc2)C(=O)N[C@@H](Cc2ccc(O)cc2)C(=O)N[C@@H](CC(=O)O)C1=O [compound 2059] ({CH2CO}-FYD[NHexGly]Y[Abu]NR[NMeNle][Ahp(2)]P[Tle]SC[βAsp][AEEA]D[AEEA][Aun]-OH; thioether N-14) | 37.4

Stronger by IC50, values ahead:

Row | IC50 [nM] | SMILES
8 | 24.1 | CCCCCCN1CC(=O)N[C@@H](Cc2ccc(O)cc2)C(=O)N[C@@H](CC(C)C)C(=O)N[C@@H](CC(N)=O)C(=O)N[C@@H](CCCNC(=N)N)C(=O)N(C)[C@@H](CCCC)C(=O)N[C@@H](CCCCC)C(=O)N2CCC[C@H]2C(=O)N[C@@H](C(C)(C)C)C(=O)N[C@@H](CO)C(=O)N[C@H](C(=O)N[C@@H](CC(=O)NCCOCCOCC(=O)N[C@@H](CC(=O)O)C(=O)NCCOCCOCC(=O)NCCCCCCCCCCC(=O)O)C(=O)O)CSCC(=O)N[C@@H](Cc2ccc(C(=O)O)cc2)C(=O)N[C@@H](Cc2ccc(O)cc2)C(=O)N[C@@H](CC(=O)O)C1=O [compound 2050] ({CH2CO}-[Phe(4-COOH)]YD[NHexGly]YLNR[NMeNle][Ahp(2)]P[Tle]SC[βAsp][AEEA]D[AEEA][Aun]-OH; thioether N-14)
9 | 23.2 | CCCCCCN1CC(=O)N[C@@H](Cc2ccc(O)cc2)C(=O)N[C@@H](CCCC(=O)O)C(=O)N[C@@H](CC(N)=O)C(=O)N[C@@H](CCCNC(=N)N)C(=O)N(C)[C@@H](CCCC)C(=O)N[C@@H](CCCCC)C(=O)N2CCC[C@H]2C(=O)N[C@@H](C(C)(C)C)C(=O)N[C@@H](CO)C(=O)N[C@H](C(=O)N[C@@H](CC(=O)NCCOCCOCC(=O)N[C@@H](CC(=O)O)C(=O)NCCOCCOCC(=O)NCCCCCCCCCCC(=O)O)C(=O)O)CSCC(=O)N[C@@H](Cc2ccccc2)C(=O)N[C@@H](Cc2ccc(O)cc2)C(=O)N[C@@H](CC(=O)O)C1=O [compound 2054] ({CH2CO}-FYD[NHexGly]Y[Aad]NR[NMeNle][Ahp(2)]P[Tle]SC[βAsp][AEEA]D[AEEA][Aun]-OH; thioether N-14)
10 | 26.1 | CCCCCCN1CC(=O)N[C@@H](Cc2ccc(O)cc2)C(=O)N[C@@H](CCCC(=O)O)C(=O)N[C@@H](CC(N)=O)C(=O)N[C@@H](CCCN)C(=O)N(C)[C@@H](CCCC)C(=O)N[C@@H](CCCCC)C(=O)N2CCC[C@H]2C(=O)N[C@@H](C(C)(C)C)C(=O)N[C@@H](CO)C(=O)N[C@H](C(=O)N[C@@H](CC(=O)NCCOCCOCC(=O)N[C@@H](CC(=O)O)C(=O)NCCOCCOCC(=O)NCCCCCCCCCCC(=O)O)C(=O)O)CSCC(=O)N[C@@H](Cc2ccccc2)C(=O)N[C@@H](Cc2ccc(O)cc2)C(=O)N[C@@H](CC(=O)O)C1=O [compound 2056] ({CH2CO}-FYD[NHexGly]Y[Aad]N[Orn][NMeNle][Ahp(2)]P[Tle]SC[βAsp][AEEA]D[AEEA][Aun]-OH; thioether N-14)
11 | 24.7 | CCCCCCN1CC(=O)N[C@@H](Cc2ccc(O)cc2)C(=O)N[C@@H](CC)C(=O)N[C@@H](CC(N)=O)C(=O)N[C@@H](CCCN)C(=O)N(C)[C@@H](CCCC)C(=O)N[C@@H](CCCCC)C(=O)N2CCC[C@H]2C(=O)N[C@@H](C(C)(C)C)C(=O)N[C@@H](CO)C(=O)N[C@H](C(=O)N[C@@H](CC(=O)NCCOCCOCC(=O)N[C@@H](CC(=O)O)C(=O)NCCOCCOCC(=O)NCCCCCCCCCCC(=O)O)C(=O)O)CSCC(=O)N[C@@H](Cc2ccccc2)C(=O)N[C@@H](Cc2ccc(O)cc2)C(=O)N[C@@H](CC(=O)O)C1=O [compound 2060] ({CH2CO}-FYD[NHexGly]Y[Abu]N[Orn][NMeNle][Ahp(2)]P[Tle]SC[βAsp][AEEA]D[AEEA][Aun]-OH; thioether N-14)
12 | 21.5 | CCCCCCN1CC(=O)N[C@@H](Cc2ccc(O)cc2)C(=O)N[C@@H](C)C(=O)N[C@@H](CC(N)=O)C(=O)N[C@@H](CCCN)C(=O)N(C)[C@@H](CCCC)C(=O)N[C@@H](CCCCC)C(=O)N2CCC[C@H]2C(=O)N[C@@H](C(C)(C)C)C(=O)N[C@@H](CO)C(=O)N[C@H](C(=O)N[C@@H](CC(=O)NCCOCCOCC(=O)N[C@@H](CC(=O)O)C(=O)NCCOCCOCC(=O)NCCCCCCCCCCC(=O)O)C(=O)O)CSCC(=O)N[C@@H](Cc2ccccc2)C(=O)N[C@@H](Cc2ccc(O)cc2)C(=O)N[C@@H](CC(=O)O)C1=O [compound 2061] ({CH2CO}-FYD[NHexGly]YAN[Orn][NMeNle][Ahp(2)]P[Tle]SC[βAsp][AEEA]D[AEEA][Aun]-OH; thioether N-14)
